According to ChEMBL document CHEMBL1649327, “In vitro antimicrobial activity and mutant prevention concentration of colistin against Acinetobacter baumannii” (Antimicrob Agents Chemother, 2010):
Converted amounts (≈) assume the structure as drawn.

Experiments:
[1] = system: Acinetobacter baumannii; assay: Antimicrobial activity against Acinetobacter baumannii assessed as resistant isolate by broth dilution method; type: functional
[2] = system: Acinetobacter baumannii; assay: Antimicrobial activity against Acinetobacter baumannii assessed as susceptible isolate by broth dilution method; type: functional
[3] = system: Acinetobacter baumannii; assay: Antimicrobial activity against Acinetobacter baumannii by broth dilution method; type: functional
[4] = system: Acinetobacter baumannii; assay: Antimicrobial activity against Acinetobacter baumannii assessed as resistant isolate by broth dilution method in presence of beta-lactamase inhibitor Sulbactam; type: functional
[5] = system: Acinetobacter baumannii; assay: Antimicrobial activity against Acinetobacter baumannii by broth dilution method in presence of beta-lactamase inhibitor Sulbactam; type: functional
[6] = system: Acinetobacter baumannii; assay: Antimicrobial activity against Acinetobacter baumannii assessed as susceptible isolate by broth dilution method in presence of beta-lactamase inhibitor Sulbactam; type: functional
[7] = system: Acinetobacter baumannii; assay: Antimicrobial activity against Acinetobacter baumannii assessed as resistant isolate by broth dilution method in presence of cilastatin; type: functional
[8] = system: Acinetobacter baumannii; assay: Antimicrobial activity against Acinetobacter baumannii assessed as susceptible isolate by broth dilution method in presence of cilastatin; type: functional
[9] = system: Acinetobacter baumannii; assay: Antimicrobial activity against Acinetobacter baumannii by broth dilution method in presence of cilastatin; type: functional
[10] = system: Homo sapiens; assay: Cmax in patient at 225 mg, iv every 12 hrs for 2 days; type: ADME, organism-based; parameters: dose 225 mg, route intravenous; conditions: in vivo
[11] = system: Homo sapiens; assay: Cmax in patient at 225 mg, iv every 8 hrs for 2 days; type: ADME, organism-based; parameters: dose 225 mg, route intravenous; conditions: in vivo
[12] = system: Acinetobacter baumannii; assay: Antimicrobial activity against Acinetobacter baumannii assessed as mutant prevention concentration require for 90% of isolates; type: functional, organism-based
[13] = system: Acinetobacter baumannii; assay: Ratio of mutant prevention concentration for Acinetobacter baumannii to MIC for Acinetobacter baumannii; type: functional, organism-based
[14] = system: Acinetobacter baumannii; assay: Antimicrobial activity against Acinetobacter baumannii assessed as mutant prevention concentration; type: functional, organism-based

Compound: CO/N=C(\C(=O)N[C@@H]1C(=O)N2C(C(=O)[O-])=C(C[N+]3(C)CCCC3)CS[C@H]12)c1csc(N)n1
- Activity [1]: 81.4%
- Activity [2]: 15.7%

Compound: NCC[C@H](O)C(=O)N[C@@H]1C[C@H](N)[C@@H](O[C@H]2O[C@H](CN)[C@@H](O)[C@H](O)[C@H]2O)[C@H](O)[C@H]1O[C@H]1O[C@H](CO)[C@@H](O)[C@H](N)[C@H]1O [AMIKACIN]
- Activity [1]: 71.4%
- Activity [2]: 28.6%
- MIC50 [3]: > 128 µg/mL
- MIC90 [3]: > 128 µg/mL

Compound: CC1(C)S[C@@H]2[C@H](NC(=O)[C@H](N)c3ccccc3)C(=O)N2[C@H]1C(=O)O [AMPICILLIN]
- Activity [4]: 81.4%
- MIC50 [5]: 128 µg/mL
- MIC90 [5]: > 128 µg/mL

Compound: CCN1CCN(C(=O)N[C@@H](C(=O)N[C@@H]2C(=O)N3C(C(=O)O)=C(CSc4nnnn4C)CS[C@H]23)c2ccc(O)cc2)C(=O)C1=O [CEFOPERAZONE]
- Activity [4]: 81.4%
- Activity [6]: 17.2%
- MIC50 [5]: > 128 µg/mL
- MIC90 [5]: > 128 µg/mL

Compound: CC(C)(O/N=C(\C(=O)N[C@@H]1C(=O)N2C(C(=O)[O-])=C(C[n+]3ccccc3)CS[C@H]12)c1csc(N)n1)C(=O)O [CEFTAZIDIME]
- Activity [1]: 77.1%
- Activity [2]: 17.2%
- MIC50 [3]: > 128 µg/mL
- MIC90 [3]: > 128 µg/mL

Compound: O=C(O)c1cn(C2CC2)c2cc(N3CCNCC3)c(F)cc2c1=O [CIPROFLOXACIN]
- Activity [1]: 82.9%
- Activity [2]: 15.7%

Compound: C[C@@H](O)[C@H]1C(=O)N2C(C(=O)O)=C(SCCNC=N)C[C@H]12 [IMIPENEM ANHYDROUS]
- Activity [7]: 75.7%
- Activity [8]: 21.4%
- MIC50 [9]: 16 µg/mL
- MIC90 [9]: 128 µg/mL

Compound: C[C@H]1COc2c(N3CCN(C)CC3)c(F)cc3c(=O)c(C(=O)O)cn1c23.C[C@H]1COc2c(N3CCN(C)CC3)c(F)cc3c(=O)c(C(=O)O)cn1c23.O [LEVOFLOXACIN]
- Activity [1]: 32.8%
- Activity [2]: 38.6%
- MIC50 [3]: 4 µg/mL
- MIC90 [3]: 16 µg/mL

Compound: C[C@@H](O)[C@H]1C(=O)N2C(C(=O)O)=C(S[C@@H]3CN[C@H](C(=O)N(C)C)C3)[C@H](C)[C@H]12 [MEROPENEM]
- Activity [1]: 77.1%
- Activity [2]: 22.9%
- MIC50 [3]: 32 µg/mL (≈ 83.4 µM)
- MIC90 [3]: 64 µg/mL (≈ 167 µM)

Compound: CCN[C@@H]1C[C@H](N)[C@@H](O[C@H]2OC(CN)=CC[C@H]2N)[C@H](O)[C@H]1O[C@H]1OC[C@](C)(O)[C@H](NC)[C@H]1O [NETILMICIN]
- Activity [1]: 75.7%
- Activity [2]: 20%
- MIC50 [3]: > 128 µg/mL
- MIC90 [3]: > 128 µg/mL

Compound: CCN1CCN(C(=O)N[C@@H](C(=O)N[C@@H]2C(=O)N3[C@@H]2SC(C)(C)[C@@H]3C(=O)O)c2ccccc2)C(=O)C1=O [PIPERACILLIN]
- Activity [4]: 71.4%
- Activity [1]: 82.9%
- Activity [6]: 17.2%
- Activity [2]: 10%
- MIC50 [3]: 128 µg/mL (≈ 247 µM)
- MIC90 [3]: > 128 µg/mL
- MIC50 [5]: > 128 µg/mL
- MIC90 [5]: > 128 µg/mL

Compound: COLISTIN [listing 1 of 2 here]
- Cmax [10]: 2930 ng/mL
- Cmax [11]: 2930 ng/mL

Compound: COLISTIN [listing 2 of 2 here]
- MPC [12]: > 128 µg/mL
- Ratio [13]: 128
- MPC [14]: > 128 µg/mL
- Activity [1]: 0%
- Activity [2]: 100%
- MIC50 [3]: 1 µg/mL
- MIC90 [3]: 1 µg/mL
